Data taken from PubChem BioAssay (NCI).
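Step 1: Grow cells in 96-well plates. Step 2: Expose to compound for 48 hours at 5 concentrations. Step 3: Interpolate endpoints linearly; if unreached, use highest concentration. GI50 is the concentration that inhibits growth by half. TGI denotes the concentration required for complete inhibition of growth.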

What was measured:
Test in all cases: NCI-60 cell line screen, 48 h
SK-OV-3 ovarian = system: SK-OV-3 ovarian
MALME-3M melanoma = system: MALME-3M melanoma
MOLT-4 leukemia = system: MOLT-4 leukemia
SF-268 CNS = system: SF-268 CNS
CCRF-CEM leukemia = system: CCRF-CEM leukemia
A498 renal = system: A498 renal
DU-145 prostate = system: DU-145 prostate
OVCAR-8 ovarian = system: OVCAR-8 ovarian
SK-MEL-5 melanoma = system: SK-MEL-5 melanoma
CAKI-1 renal = system: CAKI-1 renal
NCI-H522 lung = system: NCI-H522 lung
NCI-H460 lung = system: NCI-H460 lung
SF-295 CNS = system: SF-295 CNS
KM12 colon = system: KM12 colon
786-0 renal = system: 786-0 renal
SR leukemia = system: SR leukemia
MCF7 breast = system: MCF7 breast
NCI/ADR-RES ovarian = system: NCI/ADR-RES ovarian
U251 CNS = system: U251 CNS
TK-10 renal = system: TK-10 renal
ACHN renal = system: ACHN renal
UO-31 renal = system: UO-31 renal
K-562 leukemia = system: K-562 leukemia
NCI-H23 lung = system: NCI-H23 lung
UACC-257 melanoma = system: UACC-257 melanoma
MDA-MB-231 breast = system: MDA-MB-231 breast
HOP-92 NSCLC = system: HOP-92 NSCLC
HOP-62 NSCLC = system: HOP-62 NSCLC
BT-549 breast = system: BT-549 breast
M14 melanoma = system: M14 melanoma
RXF 393 renal = system: RXF 393 renal
OVCAR-4 ovarian = system: OVCAR-4 ovarian
MDA-MB-435 = system: MDA-MB-435
HCT-116 colon = system: HCT-116 colon
T-47D breast = system: T-47D breast
SNB-19 CNS = system: SNB-19 CNS
SK-MEL-2 melanoma = system: SK-MEL-2 melanoma
HT29 colon = system: HT29 colon
RPMI-8226 leukemia = system: RPMI-8226 leukemia
HL-60(TB) leukemia = system: HL-60(TB) leukemia
SNB-75 CNS = system: SNB-75 CNS
SF-539 CNS = system: SF-539 CNS
A549 NSCLC = system: A549 NSCLC
HCT-15 colon = system: HCT-15 colon
COLO 205 colon = system: COLO 205 colon
NCI-H226 lung = system: NCI-H226 lung
LOX IMVI melanoma = system: LOX IMVI melanoma
PC-3 prostate = system: PC-3 prostate
IGROV1 ovarian = system: IGROV1 ovarian
OVCAR-5 ovarian = system: OVCAR-5 ovarian
HS 578T breast = system: HS 578T breast
UACC-62 melanoma = system: UACC-62 melanoma
HCC-2998 colon = system: HCC-2998 colon
SK-MEL-28 melanoma = system: SK-MEL-28 melanoma
SN12C renal = system: SN12C renal
OVCAR-3 ovarian = system: OVCAR-3 ovarian
SW-620 colon = system: SW-620 colon

Compound `CNCC#Cc1c(F)ccc2c1/C(=C/c1[nH]ccc1OC)C(=O)N2` has a GI50 (SK-OV-3 ovarian) of 104 nM, a TGI (SK-OV-3 ovarian) of 3520 nM and a GI50 (MALME-3M melanoma) of 608 nM. It also gave a TGI (MALME-3M melanoma) of 2550 nM, a GI50 (MOLT-4 leukemia) of 132 nM and a TGI (MOLT-4 leukemia) of 2260 nM. For the same compound, the GI50 (SF-268 CNS) was 279 nM, the TGI (SF-268 CNS) was 2100 nM and the GI50 (CCRF-CEM leukemia) was 107 nM. It also gave a TGI (CCRF-CEM leukemia) of 954 nM, a GI50 (A498 renal) of 179 nM and a TGI (A498 renal) of 1410 nM. The GI50 (DU-145 prostate) was 136 nM, the TGI (DU-145 prostate) was 2920 nM and the GI50 (OVCAR-8 ovarian) was 161 nM. It also gave a TGI (OVCAR-8 ovarian) of 3220 nM, a GI50 (SK-MEL-5 melanoma) of 210 nM and a TGI (SK-MEL-5 melanoma) of 1420 nM. For the same compound, the GI50 (CAKI-1 renal) was 23.8 nM, the TGI (CAKI-1 renal) was 521 nM and the GI50 (NCI-H522 lung) was 299 nM. It also gave a TGI (NCI-H522 lung) of 1170 nM, a GI50 (NCI-H460 lung) of 124 nM and a TGI (NCI-H460 lung) of 2440 nM. The GI50 (SF-295 CNS) was 389 nM, the TGI (SF-295 CNS) was 3550 nM and the GI50 (KM12 colon) was 56.5 nM. For the same compound, the TGI (KM12 colon) was 2410 nM, the GI50 (786-0 renal) was 215 nM and the TGI (786-0 renal) was 3270 nM. For the same compound, the GI50 (SR leukemia) was 71.5 nM, the TGI (SR leukemia) was 513 nM and the GI50 (MCF7 breast) was 210 nM. The TGI (MCF7 breast) was 3040 nM, the GI50 (NCI/ADR-RES ovarian) was 363 nM and the TGI (NCI/ADR-RES ovarian) was 3270 nM. The GI50 (U251 CNS) was 121 nM, the TGI (U251 CNS) was 2750 nM and the GI50 (TK-10 renal) was 98 nM. For the same compound, the TGI (TK-10 renal) was 1890 nM, the GI50 (ACHN renal) was 53 nM and the TGI (ACHN renal) was 2640 nM. For the same compound, the GI50 (UO-31 renal) was 130 nM, the TGI (UO-31 renal) was 2600 nM and the GI50 (K-562 leukemia) was 650 nM. For the same compound, the TGI (K-562 leukemia) was 3610 nM, the GI50 (NCI-H23 lung) was 283 nM and the TGI (NCI-H23 lung) was 1260 nM. The GI50 (UACC-257 melanoma) was 619 nM, the TGI (UACC-257 melanoma) was 2910 nM and the GI50 (MDA-MB-231 breast) was 416 nM. The TGI (MDA-MB-231 breast) was 2180 nM, the GI50 (HOP-92 NSCLC) was 669 nM and the TGI (HOP-92 NSCLC) was 1960 nM. The GI50 (HOP-62 NSCLC) was 307 nM, the TGI (HOP-62 NSCLC) was 2680 nM and the GI50 (BT-549 breast) was 338 nM. It also gave a TGI (BT-549 breast) of 1540 nM, a GI50 (M14 melanoma) of 181 nM and a TGI (M14 melanoma) of 1480 nM. It also gave a GI50 (RXF 393 renal) of 45.4 nM, a TGI (RXF 393 renal) of 147 nM and a GI50 (OVCAR-4 ovarian) of 495 nM. The TGI (OVCAR-4 ovarian) was 3200 nM, the GI50 (MDA-MB-435) was 156 nM and the TGI (MDA-MB-435) was 1410 nM. The GI50 (HCT-116 colon) was 82.7 nM, the TGI (HCT-116 colon) was 3100 nM and the GI50 (T-47D breast) was 671 nM. The TGI (T-47D breast) was 4360 nM, the GI50 (SNB-19 CNS) was 621 nM and the TGI (SNB-19 CNS) was 2890 nM. It also gave a GI50 (SK-MEL-2 melanoma) of 79.9 nM, a TGI (SK-MEL-2 melanoma) of 369 nM and a GI50 (HT29 colon) of 133 nM. For the same compound, the TGI (HT29 colon) was 1820 nM, the GI50 (RPMI-8226 leukemia) was 322 nM and the TGI (RPMI-8226 leukemia) was 1470 nM. It also gave a GI50 (HL-60(TB) leukemia) of 72.2 nM, a TGI (HL-60(TB) leukemia) of 260 nM and a GI50 (SNB-75 CNS) of 78.6 nM. The TGI (SNB-75 CNS) was 1810 nM, the GI50 (SF-539 CNS) was 243 nM and the TGI (SF-539 CNS) was 853 nM. For the same compound, the GI50 (A549 NSCLC) was 129 nM, the TGI (A549 NSCLC) was 2710 nM and the GI50 (HCT-15 colon) was 86.6 nM. The TGI (HCT-15 colon) was 2780 nM, the GI50 (COLO 205 colon) was 113 nM and the TGI (COLO 205 colon) was 480 nM. The GI50 (NCI-H226 lung) was 211 nM, the TGI (NCI-H226 lung) was 1360 nM and the GI50 (LOX IMVI melanoma) was 142 nM. The TGI (LOX IMVI melanoma) was 2180 nM, the GI50 (PC-3 prostate) was 320 nM and the TGI (PC-3 prostate) was 2880 nM. For the same compound, the GI50 (IGROV1 ovarian) was 317 nM, the TGI (IGROV1 ovarian) was 3150 nM and the GI50 (OVCAR-5 ovarian) was 323 nM. The TGI (OVCAR-5 ovarian) was 3160 nM, the GI50 (HS 578T breast) was 195 nM and the TGI (HS 578T breast) was 3680 nM. It also gave a GI50 (UACC-62 melanoma) of 249 nM, a TGI (UACC-62 melanoma) of 815 nM and a GI50 (HCC-2998 colon) of 398 nM. It also gave a TGI (HCC-2998 colon) of 1630 nM, a GI50 (SK-MEL-28 melanoma) of 329 nM and a TGI (SK-MEL-28 melanoma) of 2880 nM. The GI50 (SN12C renal) was 118 nM, the TGI (SN12C renal) was 2860 nM and the GI50 (OVCAR-3 ovarian) was 516 nM. The TGI (OVCAR-3 ovarian) was 2740 nM, the GI50 (SW-620 colon) was 136 nM and the TGI (SW-620 colon) was 2380 nM.
